Key:
L1210 = test: Cytotoxicity against mouse L1210 cells after 4 hrs by microculture tetrazolium assay; assay type: functional, cell-based; details: L1210, 4 h
HT-29 = test: Cytotoxicity against human HT29 cells after 4 hrs by microculture tetrazolium assay; assay type: functional, cell-based; details: HT-29, 4 h
[1] = biological target: T1, Serine/threonine-protein kinase Chk1 (Homo sapiens) (UniProt O14757); test: Inhibition of human Chk1 at 10 uM
T1 sequence (whole entry): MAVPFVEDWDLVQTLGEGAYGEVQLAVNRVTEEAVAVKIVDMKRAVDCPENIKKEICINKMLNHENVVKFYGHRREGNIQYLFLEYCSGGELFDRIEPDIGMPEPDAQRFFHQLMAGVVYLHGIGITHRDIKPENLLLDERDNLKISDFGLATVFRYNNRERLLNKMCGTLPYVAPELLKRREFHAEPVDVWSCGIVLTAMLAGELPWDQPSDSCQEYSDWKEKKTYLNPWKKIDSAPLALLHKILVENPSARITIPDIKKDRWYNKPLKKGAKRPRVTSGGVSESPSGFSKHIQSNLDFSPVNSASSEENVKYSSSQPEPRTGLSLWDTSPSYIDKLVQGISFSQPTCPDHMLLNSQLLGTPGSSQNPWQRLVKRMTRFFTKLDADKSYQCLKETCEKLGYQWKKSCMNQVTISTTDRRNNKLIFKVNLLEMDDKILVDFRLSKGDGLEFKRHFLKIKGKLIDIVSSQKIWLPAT

[2] = biological target: Proto-oncogene tyrosine-protein kinase Src (Homo sapiens) (UniProt P12931); test: Inhibition of Src at 10 uM after 20 mins
HCT-116 = test: Cytotoxicity against human HCT116 cells after 4 hrs by microculture tetrazolium assay; assay type: functional, cell-based; details: HCT-116, 4 h
[3] = biological target: T2, Serine/threonine-protein kinase Chk1 (Homo sapiens, UniProt O14757); test: Inhibition of human Chk1
T2 sequence (O14757 whole entry): T1 sequence (whole entry)

Chain of Proto-oncogene tyrosine-protein kinase Src (Homo sapiens) (P12931 2-536 limits assumed): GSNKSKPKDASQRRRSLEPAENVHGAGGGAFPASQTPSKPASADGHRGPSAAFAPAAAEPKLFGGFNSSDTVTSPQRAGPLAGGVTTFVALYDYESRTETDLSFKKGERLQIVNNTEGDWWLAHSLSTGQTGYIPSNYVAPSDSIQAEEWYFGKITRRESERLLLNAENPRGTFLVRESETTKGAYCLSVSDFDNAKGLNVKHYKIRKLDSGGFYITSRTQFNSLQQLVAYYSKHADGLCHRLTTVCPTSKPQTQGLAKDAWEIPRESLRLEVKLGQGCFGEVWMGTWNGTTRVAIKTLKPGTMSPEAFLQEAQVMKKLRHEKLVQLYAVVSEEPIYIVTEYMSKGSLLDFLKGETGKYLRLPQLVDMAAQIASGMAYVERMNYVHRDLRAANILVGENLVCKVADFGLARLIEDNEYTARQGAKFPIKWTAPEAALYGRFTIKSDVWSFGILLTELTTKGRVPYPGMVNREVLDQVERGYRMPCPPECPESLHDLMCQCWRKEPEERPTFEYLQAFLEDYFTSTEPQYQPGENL

Structure (SMILES)	IC50 (L1210) [µM]	IC50 (HT-29) [µM]	inhibition [1] [%]	inhibition [2] [%]	IC50 (HCT-116) [µM]	IC50 [3] [µM]
O=c1[nH]c(=O)c2c1c1[nH]c3ccccc3c1c1c(=O)[nH]c(=O)c21 [BIS-IMIDE A]	32.7	9.7				
CC1(C)C(=O)c2c3c(c4c([nH]c5ccccc54)c2C1=O)C(=O)NC3	2.2	2.5	20	19	1.7	
O=C1NC(=O)c2c1c1c(O)ccc(O)c1c1[nH]c3ccccc3c21	1.1	5.6			3.1	
O=C1NCc2c1c1c(c3c2[nH]c2ccccc23)C(=O)NC1=O	> 50	0.58	83		8.54	0.024
O=C1NC(=O)c2c1c1c(O)ccc3c1c1c2c2ccccc2n1[C@]1(O3)O[C@H](CO)[C@@H](O)[C@H](O)[C@H]1O	21.2	57.8	73	9	46.4	1.92
CC1(C)C(=O)c2c3c(c4c([nH]c5ccccc54)c2C1=O)C(=O)NC3=O	33	38.5	63		32.7	14.5
O=C1NC(=O)c2c1c1c(c3c2[nH]c2ccccc23)C(=O)NC1						0.051
O=C1NC(=O)c2c1c1c3ccccc3[nH]c1n1cncc21 [ISOGRANULATIMIDE]	10	13.7			13	
O=C1NC(=O)c2c1c1[nH]cnc1c1[nH]c3ccccc3c21 [GRANULATIMIDE]	2.8	5.7			6.1	
O=c1ccc(=O)c2c1c1[nH]c3ccccc3c1c1c(=O)[nH]c(=O)c21	6.8	17.4			5.3	

Source: ChEMBL document CHEMBL1144715, “Synthesis, checkpoint kinase 1 inhibitory properties and in vitro antiproliferative activities of new pyrrolocarbazoles” (Bioorg Med Chem, 2008)
